# Laboratory results as given in patent US20260265203A1, “CRYSTAL FORMS OF NITROGEN-CONTAINING SPIRO COMPOUND, PREPARATION METHOD THEREFOR AND USE THEREOF” (WUHAN CREATERNA SCIENCE AND TECHNOLOGY CO., LTD., priority 2023, published 2026).
# Where two headings read alike, the source gives them in different places.
# Key:
# [1] = tested on: alternative pathway; experiment: Rabbit erythrocyte hemolysis assay (alternative pathway inhibition); assay type: cell-based, human; conditions: rabbit erythrocytes, NHP or NHS (matrix of the value not stated)
# Text: Normal Human Serum (NHS) (collected from healthy individuals), Normal Human Plasma (NHP) (Shanghai Yuduo), 96-well enzyme-linked immunosorbent assay (ELISA) plates (Jet Biofil), Japanese big-ear white rabbits (Wuhan WQJX Biotechnology), Alsever's solution (Procell), centrifuge (Thermo, PICO17), constant temperature shaker (Shanghai Fuma), decolorization shaker (Beijing Liuyi Biotechnology), cell counter (Invitrogen, Counter Countess II). GVB°, EGTA, MgCl2, NaOH, microplate reader, microplate thermostatic shaker, pipettes, etc., were the same as Experiment 1.
# 48% NHP: 100% NHP was diluted to a concentration of 48% with buffer.
# 26.4% NPS: 100% NHS was diluted to a concentration of 26.4% with buffer. […]
# In a 96-well microplate, for the experimental group 50 μL of 48% NHP or 26.4% NHS and 50 μL of compound solution were added; for the positive control group 50 μL of 48% NHP or 26.4% NHS and 50 μL of buffer containing 0.2% DMSO were added; for the blank control group 50 μL of 48% inactivated NHP or 26.4% inactivated NHS and 50 μL of buffer containing 0.2% DMSO were added; for the H2O group 100 μL of double-distilled water was added. […] The plate was centrifuged at 2000 g (3380 rpm) for 5 minutes, and 100 μL of supernatant was transferred to a new 96-well microplate, after which absorbance was measured at 415 nm. […]
# [2] = Heating experiment of crystal form II; assay type: physicochemical
# Text: The resulting solids were subsequently characterized by XRPD, TGA, DSC, and ^1H NMR testings.
# [3] = Solid-state stability experiment under open conditions (HPLC purity, XRPD); assay type: physicochemical
# Experimental: (§1) The analysis and detection of samples were conducted using Shimadzu instruments. Both stability and solubility experiments were measured using the following methods.
# The purity was determined by HPLC.
# [4] = Solubility experiments in biosolvents and water; assay type: physicochemical
# Experimental: as §1
# The samples were fully stirred in SGF, FaSSIF, FeSSIF, and water for 0.5 hours, 2 hours, and 24 hours before being withdrawn. Their solubility was determined using HPLC, and the solid form in the suspensions was analyzed by XRPD for its crystal form.
# [5] = Determination of stability in biosolvents (HPLC purity); assay type: physicochemical
# Experimental: as §1
# After thorough stirring for 0.5 hours, 2 hours, and 24 hours, the mixed solutions were diluted to 10 mL, and their purity was determined using HPLC. […] Main impurities are indicated by the boxes in FIGS. 26 to 29.
# [6] = Hygroscopicity experiment (DVS); assay type: physicochemical
# Experimental: The sample was analyzed using Intrinsic DVS ([…] UK). The test sample, approximately 20~30 mg, was placed into the sample basket and suspended in the measurement chamber. The temperature in the test chamber was maintained at 25±1° C., while the relative humidity is increased from 0% to 90% and then decreased back to 0% at a rate of 10% per hour. Mass data was recorded every 20 seconds. Each gradient pause lasts 60 minutes.
# No change in crystal form was observed before and after the DVS measurement.
# [7] = Stability of crystal form I in DMSO under high-temperature conditions (LCMS purity); assay type: physicochemical
# Experimental: The LCMS curve was acquired using a Shimadzu instrument.
# The suspension was stirred at 50° C. for 24 hours and 48 hours, respectively. The solid and filtrate were then analyzed by LCMS.
# [8] = Water activity experiment (crystal form by XRPD); assay type: physicochemical
# Experimental: Organic solvent and water were mixed at molar ratios of 0.001:0.999, 0.2:0.8, 0.5:0.5, 0.8:0.2, and 0.999:0.001. […] The mixtures were stirred at 25° C. and 50° C. for 30 minutes, respectively, followed by filtration, and the filtrate was collected. […] The results were analyzed after stirring for 5 days and 11 days, respectively.
# [9] = Wet grinding crystal transformation experiment; assay type: physicochemical; conditions: manual grinding with water or ethanol for 10 minutes
# Experimental: 0.04 mL of water or ethanol was added, and manual grinding was performed for 2 min, 5 min, and 10 min, respectively. After each grinding period, XRPD was measured. If the solvent completely evaporates during the grinding process, an additional 0.04 mL of water or ethanol should be added to the mortar each time.
# [10] = Tablet compression experiment; assay type: physicochemical; conditions: compressed at 40 MPa
# [11] = simulated gastric fluid, thermodynamic from solid, SGF
# [12] = thermodynamic from solid, FaSSIF
# [13] = thermodynamic from solid, FeSSIF
# [14] = thermodynamic from solid, Water
# [15] = 25° C., DMSO-H2O, aw 0.0003-0.999
# [16] = 50° C., DMSO-H2O, aw 0.0003-0.999
smiles,measurement,setting,value
"NCc1cccc(-c2cc(COc3ccccc3CC(=O)O)cc(N3CCC4(CC3)CC4)c2)c1 [Compound of formula A, 2-(2-((3′-(aminomethyl)-5-(6-azaspiro[2.5]octan-6-yl)-[1,1′-biphenyl]-3-yl)methoxy)phenyl)acetic Acid]",IC50,[1],41 nM
NCc1cccc(-c2cc(COc3ccccc3CC(=O)O)cc(N3CCC4(CC3)CC4)c2)c1 [crystal form II],Crystal form (XRPD) after heating,[2]; heated to 140° C.,no change in the crystal form
same,Crystal form (XRPD) after heating,[2]; heated to 200° C.,crystal form I
NCc1cccc(-c2cc(COc3ccccc3CC(=O)O)cc(N3CCC4(CC3)CC4)c2)c1 [crystal form I],HPLC main peak purity,[3]; 0 days (initial),99.33%
same,HPLC main peak purity,"[3]; open, 25° C./60% RH, 3 days",99.34%
same,HPLC main peak purity,"[3]; open, 25° C./60% RH, 7 days",98.95%
same,HPLC main peak purity,"[3]; open, 25° C./60% RH, 14 days",99.43%
same,HPLC main peak purity,"[3]; open, 25° C./90%(±5%) RH, 3 days",99.18%
same,HPLC main peak purity,"[3]; open, 25° C./90%(±5%) RH, 7 days",98.96%
same,HPLC main peak purity,"[3]; open, 25° C./90%(±5%) RH, 14 days",99.52%
same,HPLC main peak purity,"[3]; open, 40° C./75% RH, 3 days",99.30%
same,HPLC main peak purity,"[3]; open, 40° C./75% RH, 7 days",99.00%
same,HPLC main peak purity,"[3]; open, 40° C./75% RH, 14 days",99.48%
same,Crystal form (XRPD) after storage,"[3]; open, 60° C., 25° C./60% RH, 40° C./75% RH, 25° C./90(±5)% RH, 14 days",remained unchanged
same,HPLC main peak purity,"[3]; open, 60° C., 3 days",99.36%
same,HPLC main peak purity,"[3]; open, 60° C., 7 days",98.92%
same,HPLC main peak purity,"[3]; open, 60° C., 14 days",99.44%
same,solubility,"[4]; Water, 0.5 h",LOQ
same,Crystal form (XRPD) of suspended solid,"[4]; after stirring for 24 hours in FaSSIF, FeSSIF, and water",remained unchanged
same,solubility at 0.5 h,"[4]; simulated gastric fluid, thermodynamic from solid, SGF, 0.5 h",> 5000 µg/mL
same,solubility at 2 h,[4]; [11],> 5000 µg/mL
same,solubility at 24 h,[4]; [11],> 5000 µg/mL
same,solubility,"[4]; simulated gastric fluid, thermodynamic from solid, SGF, read-out: solubility in SGF",> 5000 µg/mL
same,solubility at 0.5 h,"[4]; thermodynamic from solid, FaSSIF, 0.5 h",54 µg/mL
same,solubility at 2 h,[4]; [12],66 µg/mL
same,solubility at 24 h,[4]; [12],75 µg/mL
same,solubility,"[4]; thermodynamic from solid, FaSSIF, FeSSIF, and water, read-out: solubility in FaSSIF, FeSSIF, and water",< 730 µg/mL
same,solubility at 0.5 h,"[4]; thermodynamic from solid, FeSSIF, 0.5 h",630 µg/mL
same,solubility at 2 h,[4]; [13],700 µg/mL
same,solubility at 24 h,[4]; [13],730 µg/mL
same,solubility at 2 h,[4]; [14],0.2 µg/mL
same,solubility at 24 h,[4]; [14],0.58 µg/mL
same,HPLC main peak purity,[5]; 0 h,99.33%
same,HPLC main peak purity,"[5]; FaSSIF, 0.5 h",98.97%
same,HPLC main peak purity,"[5]; FaSSIF, 2 h",98.91%
same,HPLC main peak purity,"[5]; FaSSIF, 24 h",98.86%
same,HPLC main peak purity,"[5]; FeSSIF, 0.5 h",99.50%
same,HPLC main peak purity,"[5]; FeSSIF, 2 h",99.34%
same,HPLC main peak purity,"[5]; FeSSIF, 24 h",98.04%
same,HPLC main peak purity,"[5]; FeSSIF, starting value of the decline as stated in the text",99.56%
same,HPLC main peak purity,"[5]; SGF, 0.5 h",99.13%
same,HPLC main peak purity,"[5]; SGF, 2 h",99.10%
same,HPLC main peak purity,"[5]; SGF, 24 h",99.08%
same,HPLC main peak purity,"[5]; Water, 0.5 h",99.06%
same,HPLC main peak purity,"[5]; Water, 2 h",98.79%
same,HPLC main peak purity,"[5]; Water, 24 h",98.77. %
same,Crystal form (XRPD) before and after the DVS measurement,[6],No change
same,weight gain (DVS),"[6]; 0-80% RH, 25° C.",0.55%
same,hygroscopicity,[6]; DVS,slight hygroscopicity
same,Purity by LCMS (254 nm),[7]; crystal form I before stirring,99.06%
same,Purity by LCMS (254 nm),"[7]; stirred in DMSO at 50° C. for 24 hours, filtrate",98.71%
same,Purity by LCMS (254 nm),"[7]; stirred in DMSO at 50° C. for 24 hours, solid",99.48%
same,Purity by LCMS (254 nm),"[7]; stirred in DMSO at 50° C. for 48 hours, filtrate",97.14%
same,Purity by LCMS (254 nm),"[7]; stirred in DMSO at 50° C. for 48 hours, solid",98.92%
same,Result (5 days): solid form,"[8]; 25° C., ACN-H2O, aw 0.90-1.00",Crystal form I
same,Result (11 days): solid form,"[8]; 25° C., ACN-H2O, aw 0.90-1.00",Crystal
same,Result (5 days): solid form,[8]; [15],Crystal form I
same,Result (11 days): solid form,[8]; [15],Crystal
same,Result (5 days): solid form,"[8]; 25° C., IPA-H2O, aw 0.003-0.99",Crystal form I
same,Result (11 days): solid form,"[8]; 25° C., IPA-H2O, aw 0.003-0.99",Crystal
same,Result (5 days): solid form,"[8]; 50° C., ACN-H2O, aw 0.01-1.00",Crystal form I
same,Result (11 days): solid form,"[8]; 50° C., ACN-H2O, aw 0.01-1.00",Crystal
same,Result (5 days): solid form,[8]; [16],Crystal form I
same,Result (11 days): solid form,[8]; [16],Crystal
same,Result (5 days): solid form,"[8]; 50° C., IPA-H2O, aw 0.003-0.99",Crystal form I
same,Result (11 days): solid form,"[8]; 50° C., IPA-H2O, aw 0.003-0.99",Crystal
same,Crystal form (XRPD) after wet grinding,[9],remained unchanged
same,Crystal form (XRPD) after tablet compression,[10],remained unchanged
